Source: PMC5760651, “Peptidomimetic blockade of MYB in acute myeloid leukemia” (Nature Communications, 2018)
Non-standard residues stand in square brackets, D forms with d. Residues, ends and D or L forms follow the SMILES beside them.

What was measured:
MYB:CBP/P300 complex = assay: Co-immunoprecipitation of MYB:CBP/P300 complex from MV-411 cells; format: binding, human; conditions: 20 μM, immunoprecipitation with anti-MYB, 3 h, 4 °C, western blot
Method: Cells were lysed in RIPA buffer (Thermo Fisher) supplemented with a protease inhibitor mix comprised of AEBSF (0.5 mM concentration, Santa Cruz, SC-202041B), Bestatin (0.01 mM, Fisher/Alfa Aesar, J61106-MD), Leupeptin (0.1 mM, Santa Cruz, SC-295358B), and Pepstatin (0.001 mM, Santa Cruz, SC-45036A). Lysates were mechanically disrupted using Covaris S220 adaptive focused sonicator, according to the manufacturer’s instructions (Covaris, Woburn, CA). Lysates were cleared by centrifugation for 15 min at 18,000 × g and clarified lysates were quantified using the bicinchoninic acid assay (Pierce). Clarified lysates (20 μg of protein) were resolved using sodium dodecyl sulfate-polyacrylamide gel electrophoresis, and electroeluted using the Immobilon FL PVDF membranes (Millipore, Billerica, MA, USA). Membranes were blocked using the Odyssey Blocking buffer (Li-Cor, Lincoln, Nebraska, USA). The following primary antibodies were used as indicated: anti-MYB (1:1000, 05-175, Millipore), anti-CBP (1:1000, PA1-847, Invitrogen), anti-BCL2 (1:1000, 200-401-222, Rockland), anti-β actin (1:1000, 8H10D10, Cell Signaling). […] Blotted membranes were visualized using secondary antibodies conjugated to IRDye 800CW or IRDye 680RD (Goat anti-rabbit, 1:15,000, and goat anti-mouse, 1:15,000) and the Odyssey CLx fluorescence scanner, according to manufacturer’s instructions (Li-Cor, Lincoln, Nebraska, USA). […]

MOLM-13 cells = assay: RNA-seq transcriptome profiling; format: cell-based, human; conditions: MOLM13 cells, 20 µM, 6 h
Method: Reads were quality and adapter trimmed using “trim_galore” before aligning to human assembly hg19 with STAR v2.5 using the default parameters. Coverage and post-alignment quality were assessed using the Picard tool CollectRNASeqMetrics (http://broadinstitute.github.io/picard/). Read count tables were created using HTSeq v0.6.1. Normalization and expression dynamics were evaluated with DESeq2 using the default parameters.

MV-411 cells = assay: H3K27Ac ChIP-PCR at the BCL2 enhancer; format: cell-based, human; conditions: 20 μM, 24 h, ChIP-qPCR, compared to TG3 or untreated control, p = 8.6e-3
Method: Cross-linking was ended by the addition of 1/20 volume of 2.5 M Glycine for 5 min at room temperature followed by cell lysis and sonication ([…] Covaris sonicator) to obtain 100- to 500-bp chromatin fragments. H3K27Ac Rabbit polyclonal antibody (Abcam, #4729) was conjugated to Protein A and G Dynabeads per manufacturer's instructions (Thermo Fischer Scientific). Lysates were incubated overnight at 4 °C with antibody-conjugated beads in suspension. Precipitates were then washed sequentially with cold washing solution (1% NP-40, […], 50 mM Hepes-KOH, pH 7.6, 500 mM LiCl, 0.7% Na-Deoxycholate) and then washing solution (50 mM Tris-HCL, pH 8.0, 10 mM EDTA, 50 mM NaCl), then eluted in elution buffer (50 mM Tris-HCL, pH 8.0, 10 mM EDTA, 1% SDS). Reversal of crosslinks in elution buffer overnight at 65 °C followed by digestion of RNA and protein using RNase (Roche, Catalog No. 111119915-001) and Proteinase K (Roche, Catalog No. 03115828001). DNA purification was performed using PureLink PCR Purification Kit per manufacturer's protocol (Invitrogen). qPCR was performed as described below.

C57BL/6J mice = assay: Peripheral blood counts after 7 days of treatment; format: in vivo, mouse; conditions: 25 mg/kg IP daily
Method: (§1) All mouse experiments were carried out in accordance with the Memorial Sloan Kettering Institutional Animal Care and Use Committee. For toxicity studies, female C57BL/6J mice (The Jackson Laboratory, Bar Harbor, Maine, USA) were treated with MYBMIM peptide suspended in PBS and administered daily through intraperitoneal injection at a dose of 25 mg/kg for a total of 7 days. Mice were sacrificed at the end of treatment for hematologic, biochemical and histologic analyses. For pharmacokinetic studies, C57BL/6J mice (The Jackson Laboratory, Bar Harbor, Maine, USA) were treated with a single IP injection of 25 mg/kg BIO-MYBMIM, and blood plasma was collected 30 min, 2 h, 4 h, and 24 h post-injection. Quantification of BIO-MYBMIM was measured using the Quant-Tag Biotin kit (Vector Labs, cat. # BDK-2000) following the manufacturer instructions. For patient-derived xenografts, two hundred thousand primary AML MLL-rearranged leukemia cells were suspended in […] of PBS and transplanted via tail vein injection into 8-week-old sublethally irradiated (200 rad) female NOD.Cg-Prkdc(scid)Il2rg(tm1Wjl)/SzJ mice (The Jackson Laboratory, Bar Harbor, Maine, USA). […] Mice were treated from days 3–17 of this study for a total of 14 days and then monitored daily with clinical examination for survival analysis.

[1] = system: primary patient-derived MLL-rearranged leukemia cells in NSG mice; assay: Patient-derived MLL-rearranged leukemia xenograft, treatment 3 days post transplantation, survival; format: in vivo, mouse
Method: as §1

CC[C@@H](C)[C@@H](NC(=O)[C@@H](CCCCN)NC(=O)[C@@H](CCC(=O)O)NC(=O)[C@@H](CC(C)C)NC(=O)[C@@H](CCC(=O)O)NC(=O)[C@@H](CC(C)C)NC(=O)[C@@H](CC(C)C)NC(=O)[C@@H](CC(C)C)NC(=O)[C@@H](CCSC)NC(=O)[C@@H](CO)NC(=O)[C@H](NC(=O)[C@@H](CCC(=O)O)NC(=O)[C@@H](CC(N)=O)NC(=O)[C@@H](CCC(=O)O)NC(=O)[C@@H](CC(C)C)NC(=O)[C@@H](CCCCN)NC(C)=O)[C@H](C)O)C(=O)N[C@H](CCCNC(=N)N)C(=O)N[C@H](CCCCN)C(=O)NCC(=O)NCC(=O)N[C@H](CCCNC(=N)N)C(=O)N[C@H](CCCNC(=N)N)C(=O)N[C@H](CCCNC(=N)N)C(=O)N[C@H](CCC(N)=O)C(=O)N[C@H](CCCNC(=N)N)C(=O)N[C@H](CCCNC(=N)N)C(=O)N[C@H](CCCCN)C(=O)N[C@H](CCCCN)C(=O)N[C@H](CCCNC(=N)N)C(=O)NCC(=O)N[C@H](Cc1ccc(O)cc1)C(N)=O [MYBMIM] (Ac-[dK][dL][dE][dN][dE][dT][dS][dM][dL][dL][dL][dE][dL][dE][dK][dI][dR][dK]GG[dR][dR][dR][dQ][dR][dR][dK][dK][dR]G[dY]-NH2)
Dissociation of the cellular MYB:CBP/P300 complex (MYB:CBP/P300 complex): significant dissociation | BCL2, MYC, GFI1, MTL5, IKZF1 gene expression (MOLM-13 cells): significant downregulation | H3K27Ac at the BCL2 enhancer (MV-411 cells): significant albeit incomplete reduction | Peripheral blood counts (total leukocytes, lymphocytes, platelets, blood hemoglobin) (C57BL/6J mice): no significant changes | Leukemia progression and survival ([1]; NSG mice, 25 mg/kg IP twice daily, 14 days from 3 days post-transplantation, n = 15 per group, p = 3.8e-3 log-rank): significantly delayed leukemia progression and extended survival | Disease latency in secondary transplant recipients ([1]; leukemia cells from moribund MYBMIM-treated mice vs vehicle, n = 10 per group, p < 0.0001 log-rank): significantly delayed disease latency
